Reference: patent US12534477B2, “Compound having KHK inhibitory effect” (HANGZHOU ZHONGMEIHUADONG PHARMACEUTICAL CO., LTD., priority 2019, dated 2026)

Columns and labels:
[1] = system: fructose metabolism in mice; assay: Acute fructose feeding experiment in mice; assay type: in vivo; details: compound 10 mpk, oral fructose 1 g/kg
Procedure: The effect of test compounds on the fructose content in mice with high fructose intake was investigated.
All animals were acclimated for one week in an animal house, fed with normal chow and fasted for 16 hours before being given fructose.
1) The experiment began at −0.5 hr. A control group was given a certain volume of vehicle (a certain proportion of methylcellulose and Tween 80 in water), and an experimental group was given a certain dose of a solution of the compound (the administered volume was consistent with the vehicle).
2) 0.5 hour later and before administration of a fructose solution, a blood sample was collected at 0 hr, followed by oral administration of 1 g/kg of an aqueous fructose solution.
3) After the administration of fructose, blood samples were collected from saphenous vein of mice at 0.25, 0.5, 1, 2, 3 and 8 hr, and fructose concentration was analyzed by LC-MS/MS.

[2] = molecular target: CYP2D6 (Homo sapiens (Human), UniProt P10635); assay: Inhibitory activity on human liver microsomal cytochrome P450 isozymes; assay type: in vitro ADME; details: human liver microsomes
Procedure: (§1) The inhibitory effect of test compounds on the activity of human hepatic microsomal cytochrome P450 isozymes (CYP1A2, CYP2C9, CYP2C19, CYP2D6 and CYP3A4) was determined.
(§2) First, the test compound (10 mM) was diluted in gradient to prepare working solutions (100×final concentration) with working solution concentrations: 5, 1.5, 0.5, 0.15, 0.05, 0.015, 0.005 mM, respectively, and at the same time, working solutions of each positive inhibitor of P450 isozymes (CYP1A2, CYP2C9, CYP2C19, CYP2D6 and CYP3A4) and its specific substrate mixture were prepared. Human liver microsomes frozen in a −80° C. refrigerator were thawed on ice, and diluted with PB (phosphate buffer) after all the human liver microsomes were dissolved, to prepare a working solution at a certain concentration (0.253 mg/mL). 20 μl substrate mixture was added to the reaction plate (20 μL PB was added to the Blank wells) while 158 μL human liver microsome working solution was added to the reaction plate which was placed on ice for later use. At this time, 2 μL of each concentration of the test compound (N=1) and the specific inhibitor (N=2) were added to the corresponding wells, and the corresponding organic solvents were added to the groups without inhibitors (the test compound or the positive inhibitor) as control samples (1:1 DMSO:MeOH for the test compound control sample, and 1:9 DMSO:MeOH for the positive control sample). After pre-incubation in 37° C. water bath for 10 min, 20 μL coenzyme factor (NADPH) solution was added to the reaction plate, and incubated in 37° C. water bath for 10 min. 400 μL cold acetonitrile solution (200 ng/mL Tolbutamide and Labetalol as the internal standard) was added to stop the reaction. The reaction plate was placed on a shaker and shaken for 10 min. The mixture was centrifuged at 4,000 rpm for 20 min, and 200 μl the supernatant was added to 100 μL water for sample dilution. Finally, the plate was sealed, shaken, mixed well and detected by LC/MS/MS.

[3] = molecular target: CYP2C9 (Homo sapiens (Human), UniProt P11712); assay: as above; assay type: in vitro ADME; details: human liver microsomes
Procedure: as §1, §2

[4] = molecular target: CYP3A4 (Homo sapiens (Human), UniProt P08684); assay: as above; assay type: in vitro ADME; details: human liver microsomes
Procedure: as §1, §2

[5] = molecular target: CYP2C19 (Homo sapiens (Human), UniProt P33261); assay: as above; assay type: in vitro ADME; details: human liver microsomes
Procedure: as §1, §2

Chain of CYP2D6 (P10635 whole entry): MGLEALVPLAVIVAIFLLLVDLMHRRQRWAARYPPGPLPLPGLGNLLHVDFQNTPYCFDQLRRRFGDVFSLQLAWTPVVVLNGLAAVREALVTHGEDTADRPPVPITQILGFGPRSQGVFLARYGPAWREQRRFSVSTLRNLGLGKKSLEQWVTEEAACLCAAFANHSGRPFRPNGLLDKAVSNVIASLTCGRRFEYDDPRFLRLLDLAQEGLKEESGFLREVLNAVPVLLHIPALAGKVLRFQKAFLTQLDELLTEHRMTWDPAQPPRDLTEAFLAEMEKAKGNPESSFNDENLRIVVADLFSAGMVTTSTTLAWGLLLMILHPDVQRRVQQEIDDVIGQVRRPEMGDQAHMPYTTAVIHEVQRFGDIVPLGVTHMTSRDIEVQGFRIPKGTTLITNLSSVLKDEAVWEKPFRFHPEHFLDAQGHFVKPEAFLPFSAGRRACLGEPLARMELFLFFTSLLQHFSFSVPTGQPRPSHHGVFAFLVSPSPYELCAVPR
Chain of CYP3A4 (P08684 whole entry): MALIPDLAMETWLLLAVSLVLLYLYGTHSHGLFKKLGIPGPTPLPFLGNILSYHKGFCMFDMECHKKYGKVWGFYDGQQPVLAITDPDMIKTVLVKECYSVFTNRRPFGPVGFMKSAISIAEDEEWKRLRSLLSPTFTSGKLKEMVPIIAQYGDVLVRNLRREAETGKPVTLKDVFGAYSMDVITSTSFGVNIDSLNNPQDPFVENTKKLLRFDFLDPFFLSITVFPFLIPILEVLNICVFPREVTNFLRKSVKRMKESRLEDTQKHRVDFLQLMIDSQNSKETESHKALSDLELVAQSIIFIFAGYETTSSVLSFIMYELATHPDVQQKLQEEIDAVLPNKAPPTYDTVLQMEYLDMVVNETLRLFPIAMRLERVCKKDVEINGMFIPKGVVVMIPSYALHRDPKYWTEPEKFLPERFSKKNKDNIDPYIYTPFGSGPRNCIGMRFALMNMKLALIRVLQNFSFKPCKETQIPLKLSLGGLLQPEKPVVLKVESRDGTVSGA
Chain of CYP2C19 (P33261 whole entry): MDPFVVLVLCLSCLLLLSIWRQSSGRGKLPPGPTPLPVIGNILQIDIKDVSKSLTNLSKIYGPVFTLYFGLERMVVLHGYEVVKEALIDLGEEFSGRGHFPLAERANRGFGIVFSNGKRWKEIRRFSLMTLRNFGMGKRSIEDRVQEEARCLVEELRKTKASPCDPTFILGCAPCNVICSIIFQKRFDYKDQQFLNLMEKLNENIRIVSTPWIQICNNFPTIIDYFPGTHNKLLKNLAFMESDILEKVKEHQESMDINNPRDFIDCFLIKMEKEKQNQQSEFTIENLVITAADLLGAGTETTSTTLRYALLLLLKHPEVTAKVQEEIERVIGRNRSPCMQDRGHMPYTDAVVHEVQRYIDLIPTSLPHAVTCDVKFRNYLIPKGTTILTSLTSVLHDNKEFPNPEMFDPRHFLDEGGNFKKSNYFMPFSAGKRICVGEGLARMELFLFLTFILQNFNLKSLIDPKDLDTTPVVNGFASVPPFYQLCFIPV
Chain of CYP2C9 (P11712 whole entry): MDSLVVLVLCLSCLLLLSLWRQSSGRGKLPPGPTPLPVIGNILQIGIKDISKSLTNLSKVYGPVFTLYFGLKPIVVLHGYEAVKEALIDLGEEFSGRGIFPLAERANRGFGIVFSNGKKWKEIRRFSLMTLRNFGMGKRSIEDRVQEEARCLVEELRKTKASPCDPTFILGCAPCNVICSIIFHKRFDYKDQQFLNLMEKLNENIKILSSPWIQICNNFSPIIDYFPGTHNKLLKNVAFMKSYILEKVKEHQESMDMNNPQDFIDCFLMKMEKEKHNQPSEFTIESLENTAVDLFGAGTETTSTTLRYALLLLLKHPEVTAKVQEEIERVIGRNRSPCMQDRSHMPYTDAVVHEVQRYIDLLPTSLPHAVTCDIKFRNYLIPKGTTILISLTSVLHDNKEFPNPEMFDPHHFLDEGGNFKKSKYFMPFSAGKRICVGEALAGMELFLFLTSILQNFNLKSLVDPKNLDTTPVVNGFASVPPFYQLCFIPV

C[C@H]1CCN1c1nc(N2C[C@@H]3[C@@H](CC(=O)O)[C@@H]3C2)c2ccsc2n1 [WX004]
AUC of integral fructose concentration for dosed group [1]: 2194 nM·h | AUC of integral fructose concentration of dosed group/AUC of Integral fructose concentration of control group [1]: 5.0 | IC50 [2]: > 50 µM | IC50 [3]: > 50 µM | IC50 [4]: > 50 µM | IC50 [5]: > 50 µM
